Laboratory results from PubChem BioAssay (NCI).
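Dose response: 5 concentrations. Exposure: 48 h. Format: 96-well plates. Endpoint: linear interpolation; highest concentration if not reached. GI50 = concentration required for 50% inhibition of growth. Definition used: TGI = concentration required for complete inhibition of growth.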

How the values were obtained:
Assay in all cases: DTP human tumour cell line panel, 48 h
SF-539 CNS = test system: SF-539 CNS
M19-MEL melanoma = test system: M19-MEL melanoma
HOP-62 NSCLC = test system: HOP-62 NSCLC
DLD-1 colon = test system: DLD-1 colon
HCT-15 colon = test system: HCT-15 colon
KM20L2 colon = test system: KM20L2 colon
DMS 114 small cell lung = test system: DMS 114 small cell lung
OVCAR-3 ovarian = test system: OVCAR-3 ovarian
UO-31 renal = test system: UO-31 renal
LOX IMVI melanoma = test system: LOX IMVI melanoma
PC-3 prostate = test system: PC-3 prostate
NCI/ADR-RES ovarian = test system: NCI/ADR-RES ovarian

Row | Compound | TGI (SF-539 CNS) | TGI (M19-MEL melanoma) | TGI (HOP-62 NSCLC) | TGI (DLD-1 colon) | TGI (HCT-15 colon) | TGI (KM20L2 colon) | TGI (DMS 114 small cell lung) | TGI (OVCAR-3 ovarian) | TGI (UO-31 renal) | TGI (LOX IMVI melanoma) | TGI (PC-3 prostate) | TGI (NCI/ADR-RES ovarian) | GI50 (PC-3 prostate) | GI50 (SF-539 CNS) | GI50 (NCI/ADR-RES ovarian) | GI50 (HOP-62 NSCLC) | GI50 (LOX IMVI melanoma) | GI50 (HCT-15 colon) | GI50 (OVCAR-3 ovarian) | GI50 (UO-31 renal)
1 | COCCCNC(=O)CC(=O)NCCCOC | > 100 µM | > 100 µM | > 100 µM | > 100 µM | > 100 µM | > 100 µM | > 100 µM | > 100 µM | > 100 µM | – | – | – | – | – | – | – | – | – | – | –
2 | CCC(=O)c1c(NOC2OC(COC(C)=O)C(OC(C)=O)C(OC(C)=O)C2OC(C)=O)nc(OC)n(C)c1=O (stereo unspecified) | > 100 µM | > 100 µM | > 100 µM | > 100 µM | > 100 µM | > 100 µM | > 100 µM | – | – | > 100 µM | – | – | – | – | – | – | – | – | – | –
3 | CCOC(=O)C(=Cc1ccc(Oc2ccccc2)cc1)C(=O)OCC | 10.3 µM | – | 11.2 µM | 5.21 µM | 6.35 µM | 16.8 µM | 10.9 µM | 19.1 µM | 11.8 µM | 3.22 µM | 6.12 µM | – | – | – | – | – | – | – | – | –
4 | O=C(NP(=O)(N1CC1)N1CC1)c1cc(I)ccc1I | 71.7 µM | > 100 µM | > 71.5 µM | > 100 µM | > 100 µM | > 100 µM | 99.2 µM | 86.6 µM | > 100 µM | 54.8 µM | > 100 µM | > 66.1 µM | – | – | – | – | – | – | – | –
5 | COc1cc(OC)c(C2CC=Cc3c(OC)cc(OC)c(OC)c32)cc1OC (stereo unspecified) | > 100 µM | > 100 µM | > 100 µM | > 100 µM | > 100 µM | > 100 µM | > 100 µM | > 100 µM | > 100 µM | > 100 µM | – | – | – | – | – | – | – | – | – | –
6 | CC(=O)c1ccc(NC(=O)C(=O)Nn2c(=S)[nH]c3ccccc3c2=O)cc1 | > 100 µM | > 100 µM | > 100 µM | > 100 µM | > 100 µM | > 100 µM | > 100 µM | > 100 µM | > 100 µM | > 100 µM | – | – | – | – | – | – | – | – | – | –
7 | O=[N+]([O-])c1cccc(-c2oc(C=Nc3ccccc3)c([N+](=O)[O-])c2-c2cccc([N+](=O)[O-])c2)c1 | > 100 µM | > 100 µM | > 100 µM | > 100 µM | – | > 100 µM | > 100 µM | > 100 µM | > 100 µM | > 100 µM | – | – | – | – | – | – | – | – | – | –
8 | CCC1CN2CCc3c([nH]c4ccccc34)C2C[C@@H]1CC(=O)N(C)C (stereo partly specified) | > 100 µM | > 100 µM | > 100 µM | > 100 µM | > 100 µM | > 100 µM | > 100 µM | > 100 µM | > 100 µM | > 100 µM | – | – | – | – | – | – | – | – | – | –
9 | O=C1C2C3C=CC(C2C(=O)N1COP(=O)(O)O)C1C2C(=O)N(COP(=O)(O)O)C(=O)C2C31 (stereo unspecified) | > 100 µM | > 100 µM | > 100 µM | > 75.9 µM | > 57.9 µM | > 100 µM | > 58.8 µM | > 100 µM | > 100 µM | > 64.1 µM | – | – | – | – | – | – | – | – | – | –
10 | COC(=O)c1c(N)n[nH]c1N | > 100 µM | > 100 µM | > 100 µM | > 100 µM | – | > 100 µM | – | > 100 µM | > 100 µM | > 100 µM | – | – | – | – | – | – | – | – | – | –
11 | O=C(Nc1nc2ncn(CCNCc3ccccc3)c2c(=O)[nH]1)c1ccccc1 | > 100 µM | > 100 µM | > 100 µM | > 100 µM | > 100 µM | > 100 µM | > 100 µM | > 100 µM | > 100 µM | > 100 µM | – | – | – | – | – | – | – | – | – | –
12 | Cc1ccc(S(=O)(=O)OCC23CCC(CC2)C2CC23)cc1 (stereo unspecified) | – | > 100 µM | > 100 µM | > 100 µM | > 100 µM | > 100 µM | > 100 µM | > 100 µM | > 100 µM | > 100 µM | – | – | – | – | – | – | – | – | – | –
13 | COC1OC(COCc2ccc(Cl)cc2)C(OCc2ccc(Cl)cc2)C1N=[N+]=[N-] (stereo unspecified) | – | – | – | – | > 100 µM | > 100 µM | > 100 µM | > 100 µM | > 100 µM | – | – | – | – | – | – | – | – | – | – | –
14 | COc1cc(/C=C/C(=O)c2ccc(NC(=O)CN3CCN(c4cc5c(cc4F)c(=O)c(C(=O)O)cn5C4CC4)CC3)cc2)cc(OC)c1OC | 3.03 µM | – | 3.93 µM | – | > 100 µM | – | – | 1.37 µM | 7.78 µM | 2.24 µM | > 100 µM | > 100 µM | 0.782 µM | 0.721 µM | > 75.9 µM | 0.353 µM | 0.511 µM | 0.575 µM | 0.364 µM | 1.38 µM
15 | O=[N+]([O-])c1cccc(C2ON2C2CCCCC2)c1 (stereo unspecified) | 46.3 µM | 39.9 µM | 81.3 µM | 29.9 µM | 30.7 µM | 49.3 µM | 42.9 µM | 34.6 µM | 49.7 µM | – | – | – | – | – | – | – | – | – | – | –
16 | CSc1ccc(NC(=S)NN(C)C)cc1 | > 10 µM | – | > 10 µM | – | > 10 µM | – | – | > 10 µM | > 10 µM | > 10 µM | > 10 µM | > 10 µM | – | – | – | – | – | – | – | –
17 | Cc1occc1C(=S)Nc1ccc(Cl)c(C(=O)OC(C)C2CC2)c1 (stereo unspecified) | 71.6 µM | – | 57.7 µM | – | 41.2 µM | – | – | 35.3 µM | 30.5 µM | 49.5 µM | 41.3 µM | 65.1 µM | – | – | – | – | – | – | – | –
